Experimental data taken from ChEMBL document CHEMBL2424593, “New scaffolds of natural origin as Integrase-LEDGF/p75 interaction inhibitors: virtual screening and activity assays” (Eur J Med Chem, 2013).
Activity calls are given as the source filed them. The rule behind the calls is not given here.

How the values were obtained:
[1] = Inhibition of HIV1 His6-tagged integrase-LEDGF/p75 (unknown origin) interaction at 100 uM incubated for 30 mins followed by LEDGF/p75 addition measured after 4 hrs relative to control
[2] = system: Human immunodeficiency virus; test: Antiviral activity against HIV 3B infected in human MT4 cells assessed as protection against virus-induced cytopathic effect at 100 uM by MTT assay; assay type: functional, organism-based
[3] = Inhibition of HIV1 His6-tagged integrase-LEDGF/p75 (unknown origin) interaction incubated for 30 mins followed by LEDGF/p75 addition measured after 4 hrs
[4] = system: MT4; test: Cytotoxicity against human MT4 cells at 125 uM by MTT assay; assay type: cell-based; details: mt4, 125 µM

Compound	inhibition [1]	Activity [2]	IC50 [3] [µM]	Activity [4]
O=C(O)c1nn(Cc2ccc(Cl)cc2Cl)c2ccccc12	40%			
Cn1c(=O)c(CC(=O)O)c(O)c2ccccc21	inactive			
COc1ccc(/C=C2/SC(=S)N(C(C(=O)O)C(C)C)C2=O)cc1 (racemic)		inactive	41.3	Non-toxic
O=C(O)Cc1c(-c2ccccc2)c2cc(Cl)ccc2[nH]c1=O			12.2	
CCCC(C(=O)O)c1cnc2ccc(Cl)cc2c1-c1ccccc1 (racemic)			1.37	
CCc1cc(C(=O)Cc2ccc3c(c2)OCCO3)c(O)cc1OCC(=O)O	50%		> 100	
Cc1ccc2[nH]c(=O)c(CC(=O)O)c(-c3ccccc3)c2c1	61%		52.5	
Cc1cn2c3c(=O)n(CCc4ccccc4)c(=O)n(C)c3nc2n1CC(=O)O	52%			
Cc1c(OC(C(=O)O)c2ccccc2)ccc2c(-c3ccccc3)cc(=O)oc12 (racemic)	87%	inactive	37.2	
O=C(O)c1cc(N(Cc2ccccc2O)Cc2ccccc2O)ccc1O [LAVENDUSTIN B]	58%		94.1	
COc1ccc2nc(C)cc(Nc3cccc(C(=O)O)c3)c2c1	30%			
